{
  "source": "patent US10336788B2",
  "about": "“Inhibition of cardiac fibrosis in myocardial infarction” (Moerae Matrix, Inc., priority 2014, dated 2019)",
  "key": {"MK2 [1]": {"test_system": "MK2", "assay": "Immunoblot analysis of MK2 activity (HNRNPA0, total MK2, p-MK2) in HL1 cells", "format": "cell-based, mouse", "description": "(§1) Cells were rinsed in PMS and grown in DMEM (cat. #11966-025, Gibco) for 2 hours prior to initiating hypoxia (simulated ischemia). Hypoxia was induced by placing cells in a hypoxia chamber ([…] 150i, Thermo Scientific) in a mixture of 5% CO2/95% N2 to attain a 1% oxygen concentration, according to the manufacturer's instruction. […] The MMI-0100 peptide was added to the cells at the start of the ischemia time. Cells were cultured in 12 well plates. At the time of performing the experiments, all cultures were approximately 70-90% confluent. Three different time points were adopted for each of the three cell lines according to the severity of cell death under hypoxia determined by LDH release: for H9C2 cell line: 8 hr; 16 hr; 24 hr; for HL-1 cell line: 4 hr; 8 hr; 12 hr; for cardiac fibroblast cell line: 16 hr; 32 hr; 48 hr.\n(§2) The left over cell lysates from the Caspase activity assay were used for the Western blots. […] After blocking with recommended blocking reagents for 1 h at the room temperature, the membranes were incubated overnight at 4° C. with primary antibodies in TBS-T, and then incubated with secondary antibodies conjugated with HRP in TBS-T. HNRNPA0, MAPK2, and phospho-MAPK2 proteins were detected using anti-HNRNPA0 (cat. #HPA036569, 1:1000, Sigma-Aldrich), anti-MAPKAPK2 (cat. #SAB4300553, Sigma-Aldrich), and anti-phospho-MAPKAPK2 (cat. #SAB4300241, 1:1000, Sigma-Aldrich). […]"}, "H9C2 cells": {"test_system": "H9C2 cells", "assay": "LDH release assay in H9C2 cells (1% hypoxia or normoxia)", "format": "cell-based, rat", "conditions": "for LDH release: 1% hypoxia", "description": "H9C2 is a myoblast cell line derived from rat myocardium obtained from ATCC® (CRL-1446, ATCC, Manassas, Va.) and cultured according to the recommended protocols. Briefly, cells were maintained at 37° C. with 5% CO2 in DMEM supplemented with 10% fetal bovine serum and antibiotics (100 U/ml penicillin, […] streptomycin) and split at a ratio of 1:4 using 0.05% trypsin every 36 hours. HL-1 cells were obtained from Dr. William Claycomb and cultured according to the published protocols [Claycomb W C, Lanson N A, Jr., Stallworth B S, Egeland D B, Delcarpio J B, Bahinski A, et al. HL-1 cells: a cardiac muscle cell line that contracts and retains phenotypic characteristics of the adult cardiomyocyte. Proc. Natl Acad. Sci. USA. 1998; 95:2979-84; White S M, Constantin P E, Claycomb W C. Cardiac physiology at the cellular level: use of cultured HL-1 cardiomyocytes for studies of cardiac muscle cell structure and function. Am. J. Physiol. Heart Circul. Physiol. 2004; 286:H823-9]. […]\nCells were rinsed in PMS and grown in DMEM (cat. #11966-025, Gibco) for 2 hours prior to initiating hypoxia (simulated ischemia). […] Three different time points were adopted for each of the three cell lines according to the severity of cell death under hypoxia determined by LDH release: for H9C2 cell line: 8 hr; 16 hr; 24 hr; for HL-1 cell line: 4 hr; 8 hr; 12 hr; for cardiac fibroblast cell line: 16 hr; 32 hr; 48 hr.\nCell death was first determined using an LDH release assay (cat. #630117, Clontech), according to the manufacturer's instructions. […] Caspase 3/7 activity was next determined using a commercial Caspase 3/7 activity kit (Cat. #G8091, Promega, Madison, Wis. 53711) in a 384 well plate (Cat. #781903, Greiner bio-one) according to the manufacturer's instructions. […] The resulting cell lysates (25 μl, with 0.6 ug total protein) and Caspase-Glo 3/7 Reagent were added to each well in a 1:1 ratio and the luminescence was read (CLARIOstar, BMG LABTECH GmbH). […]"}, "MK2 [2]": {"test_system": "MK2", "assay": "Immunoblot analysis of MK2 activity (HNRNPA0, total MK2, p-MK2) in primary cardiac fibroblasts", "format": "cell-based, rat", "description": "as §1, §2"}, "[3]": {"test_system": "bleomycin-induced pulmonary fibrosis", "conditions": "Vittal et al. 2013; cited from earlier work"}},
  "note": "No end group written: not given here.",
  "data": [
    {"sequence": "YARAAARQARAKALARQLGVAA [MMI-0100]", "values": [
      {"measurement": "HNRNPA0 protein expression", "setting": "MK2 [1]; 100 μM, 4 and 8 hours after induction by hypoxia", "result": "inhibited"},
      {"measurement": "total MK2 and p-MK2 protein levels", "setting": "MK2 [1]; 20 or 100 μM, 1% hypoxia", "result": "not changed"},
      {"measurement": "LDH release", "setting": "H9C2 cells; 100 μM only, 16 hours", "result": "enhanced"},
      {"measurement": "LDH release", "setting": "H9C2 cells; 20 and 100 μM, 8 hours", "result": "significantly enhanced"},
      {"measurement": "LDH release in normoxic conditions", "setting": "H9C2 cells; absence of hypoxia, 8 hours", "result": "did not enhance LDH release"},
      {"measurement": "protein levels of MK2 and p-MK2", "setting": "MK2 [2]; compared to hypoxia alone", "result": "did not significantly differ"},
      {"measurement": "MK2 activity, as measured by HNRNPA0 protein levels", "setting": "MK2 [2]; hypoxia, 16, 32, or 48 hours", "result": "did not change"},
      {"measurement": "inflammation and fibrosis in bleomycin-induced pulmonary fibrosis", "setting": "[3]", "result": "inhibits inflammation and fibrosis"}
    ]}
  ]
}
